Reference: the OligoGym collection
Where “and” joins values, the source holds several entries; their conditions need not be identical. Equal values may be shown once. After the bases stand the sugars from the 5' end (letter, count) and the backbone: PS all phosphorothioate, else s phosphorothioate and o phosphodiester by linkage. Methylation of C is not given here. e = 2'-O-(2-methoxyethyl) (MOE); k = constrained ethyl (cEt); d = 2'-deoxy (DNA)

Molecular target: IRF4
Conditions: ASO

Row | Sequence | target mRNA inhibition (MM.1R, 1 µM) | target mRNA inhibition (SK-MEL-28, 4 µM) [%] | other results
1 | GAATGGCGGATAGATC (sugars k3 d10 k3, PS) | -3% |  | 
2 | GAATTAGGTGCTTAAT (sugars k3 d10 k3, PS) |  | 59 | 
3 | GACAAATCTTCTGCCT (sugars k3 d10 k3, PS) |  | 26 | 
4 | GACAAGTGGCGCAGAC (sugars k3 d10 k3, PS) |  | 11 | 
5 | GACAATGGAGATACTT (sugars k3 d10 k3, PS) | 33% and 37% |  | 
6 | GACACTTTTAGAGAGG (sugars kkdddddddddekeke, PS) | 22% |  | 
7 | GACACTTTTAGAGAGG (sugars kkkddddddddkekek, PS) | -8% |  | 
8 | GACAGCTAAAGAACAC (sugars k3 d10 k3, PS) |  | 19 | 
9 | GACAGCTTCTTTGAAG (sugars k3 d10 k3, PS) |  | 36 | 
10 | GACAGTGACTTGCATC (sugars kddddddddddkekek, PS) | 8% |  | 
11 | GACATAAAGGACCCCG (sugars k3 d10 k3, PS) | 8% |  | 
12 | GACATATTTGCTTTGG (sugars k3 d10 k3, PS) |  | 58 | 
13 | GACCATGTTACACTTT (sugars k3 d10 k3, PS) |  | 50 | 
14 | GACGAACGCGCAAAAC (sugars k3 d10 k3, PS) | 15% |  | 
15 | GACGACAGCTGCGGAG (sugars k3 d10 k3, PS) |  | 45 | 
16 | GACTCCGGGAGCCTGG (sugars k3 d10 k3, PS) |  | 65 | 
17 | GACTGACAGCCGAAGC (sugars k3 d10 k3, PS) | 27% |  | 
18 | GACTGGAACATTGTTG (sugars k3 d10 k3, PS) | -41% |  | 
19 | GACTGGAGTGAACCCT (sugars k3 d10 k3, PS) | 38% |  | 
20 | GACTTAGTCAGAATCT (sugars k3 d10 k3, PS) | 10% |  | 
21 | GAGAAAACTCCTGAGT (sugars k3 d10 k3, PS) |  | 5 | 
22 | GAGAAACGGCCTGGAG (sugars k3 d10 k3, PS) |  | 44 | 
23 | GAGAGCCTTCACGCAC (sugars k3 d10 k3, PS) |  | 23 | 
24 | GAGATAGGAAGCACTG (sugars k3 d10 k3, PS) |  | 48 | 
25 | GAGATATTAATTACTG (sugars k3 d10 k3, PS) |  | 63 | 

Row | Sequence | target mRNA inhibition (MM.1R, 1 µM) | target mRNA inhibition (SK-MEL-28, 4 µM) [%] | other results
26 | GAGCCAACTTATAGCA (sugars k3 d10 k3, PS) | 11% and 8% |  | 
27 | GAGCTGCTTGGCTCCT (sugars k3 d10 k3, PS) |  | 19 | 
28 | GAGCTGTGATGAGCTT (sugars k3 d10 k3, PS) |  | 10 | 
29 | GAGCTTTCTTTGCCTC (sugars k3 d10 k3, PS) |  | 13 | 
30 | GAGGACCTCGCCTGCG (sugars k3 d10 k3, PS) |  | -2 | 
31 | GAGGACTTCGGGAGAT (sugars k3 d10 k3, PS) |  | 23 | 
32 | GAGGGTCTGGAAACTC (sugars k3 d10 k3, PS) |  | -4 | 
33 | GAGGTCTTTGGGATTC (sugars k3 d10 k3, PS) |  | 74 | 
34 | GAGGTTCGCTGAATTG (sugars k3 d10 k3, PS) |  | 30 | 
35 | GAGGTTGCCGAGATAT (sugars k3 d10 k3, PS) | 29% |  | 
36 | GAGTATTTCATAGCTA (sugars k3 d10 k3, PS) |  | 71 | 
37 | GAGTGTGCAGTTCCGT (sugars k3 d10 k3, PS) |  | 67 | 
38 | GAGTTACCGCATTGCT (sugars k3 d10 k3, PS) | 47% and 52% |  | target mRNA inhibition (MM.1R, 0.0625 µM): -9%; target mRNA inhibition (MM.1R, 0.25 µM): 16%; target mRNA inhibition (MM.1R, 4 µM): 81%
39 | GATAAGAAGCACTGGC (sugars k3 d10 k3, PS) |  | 63 | 
40 | GATATAAATAGCTGTT (sugars k3 d10 k3, PS) |  | 37 | 
41 | GATATTAGAGACTGTA (sugars k3 d10 k3, PS) |  | 51 | 
42 | GATCATCAACTTCTTT (sugars k3 d10 k3, PS) |  | 43 | 
43 | GATCGAGCGGTGAAAC (sugars k3 d10 k3, PS) |  | 23 | 
44 | GATGAGAATTCCAAAC (sugars k3 d10 k3, PS) | 14% | 84 | target mRNA inhibition (MM.1R, 0.0625 µM): -1%; target mRNA inhibition (MM.1R, 0.074 µM): 0%; target mRNA inhibition (MM.1R, 0.222 µM): 2%; target mRNA inhibition (MM.1R, 0.25 µM): 2%; target mRNA inhibition (MM.1R, 0.666 µM): 0%; target mRNA inhibition (MM.1R, 2 µM): 32%; target mRNA inhibition (MM.1R, 4 µM): 36%
45 | GATGAGATATTCCTCT (sugars k3 d10 k3, PS) | -24% |  | 
46 | GATGCAGCTGGCCACA (sugars k3 d10 k3, PS) |  | 73 | 
47 | GATGGAACAGTAACTT (sugars k3 d10 k3, PS) |  | 51 | 
48 | GATGTGATAGCTGAGC (sugars k2 d9 e3 k2, PS) | 52% |  | 
49 | GATGTGATAGCTGAGC (sugars kkddddddddddkeke, PS) | 64% |  | 
50 | GATGTGATAGCTGAGC (sugars kkdddddddddkekek, PS) | 31% |  | 

Row | Sequence | target mRNA inhibition (MM.1R, 1 µM) | target mRNA inhibition (SK-MEL-28, 4 µM) [%] | other results
51 | GATTATATACTGGTTG (sugars kddddddddddkekek, PS) | 48% |  | 
52 | GATTATATACTGGTTG (sugars kkdddddddddkdkdk, PS) | 35% |  | 
53 | GATTATATACTGGTTG (sugars kkdddddddddkekek, PS) | 45% |  | 
54 | GCAAAGCCACCCTTCC (sugars k3 d10 k3, PS) |  | 60 | 
55 | GCAACTAGCAGGGCAC (sugars k3 d10 k3, PS) |  | 53 | 
56 | GCAAGTGTCTTCCACA (sugars k3 d10 k3, PS) |  | 77 | 
57 | GCAAGTTTTCTCTGTC (sugars k3 d10 k3, PS) |  | 56 | 
58 | GCAATTAGCTCTTCTA (sugars k3 d10 k3, PS) |  | 21 | 
59 | GCACACACAAGTGGCC (sugars k3 d10 k3, PS) |  | 64 | 
60 | GCACGCAAGGCTCGGA (sugars k3 d10 k3, PS) | 7% |  | 
61 | GCACGGACGAACGCGC (sugars k3 d10 k3, PS) |  | 23 | 
62 | GCACTCTTACTCCGCT (sugars k3 d10 k3, PS) | 2% |  | 
63 | GCACTGGCATTGAGAC (sugars k3 d10 k3, PS) |  | 73 | 
64 | GCAGAAGCTGGTTGGC (sugars k3 d10 k3, PS) |  | 58 | 
65 | GCAGCTCCTACATACA (sugars k3 d10 k3, PS) |  | 53 | 
66 | GCAGTGATGTCAGGTT (sugars e1 k2 d9 k2 e2, PS) | 56% |  | target mRNA inhibition (MM.1R, 0.074 µM): 15%; target mRNA inhibition (MM.1R, 0.222 µM): 33%; target mRNA inhibition (MM.1R, 0.666 µM): 52%; target mRNA inhibition (MM.1R, 2 µM): 75%
67 | GCAGTGATGTCAGGTT (sugars k2 d9 e3 k2, PS) | 81% |  | target mRNA inhibition (MM.1R, 0.074 µM): 20%; target mRNA inhibition (MM.1R, 0.222 µM): 48%; target mRNA inhibition (MM.1R, 0.666 µM): 73%; target mRNA inhibition (MM.1R, 2 µM): 91%
68 | GCAGTGATGTCAGGTT (sugars kddddddddddkekek, PS) | 36% |  | 
69 | GCAGTGATGTCAGGTT (sugars kdddddddddkekeke, PS) | 33% |  | 
70 | GCAGTGATGTCAGGTT (sugars kkddddddddddkeke, PS) | 67% |  | target mRNA inhibition (MM.1R, 0.074 µM): 25%; target mRNA inhibition (MM.1R, 0.222 µM): 45%; target mRNA inhibition (MM.1R, 0.666 µM): 63%; target mRNA inhibition (MM.1R, 2 µM): 85%
71 | GCAGTGATGTCAGGTT (sugars kkdddddddddekeke, PS) | 80% |  | target mRNA inhibition (MM.1R, 0.074 µM): 22%; target mRNA inhibition (MM.1R, 0.222 µM): 49%; target mRNA inhibition (MM.1R, 0.666 µM): 73%; target mRNA inhibition (MM.1R, 2 µM): 92%
72 | GCATAGTGATGAGATA (sugars k3 d10 k3, PS) |  | 59 | 
73 | GCATCTCTAAAGAATG (sugars k3 d10 k3, PS) |  | 61 | 
74 | GCATGTTCCTCAAAGC (sugars k3 d10 k3, PS) |  | 76 | 
75 | GCATTTTATCATCCGA (sugars k3 d9 k3 e1, PS) | 62% |  | target mRNA inhibition (MM.1R, 0.074 µM): 16%; target mRNA inhibition (MM.1R, 0.222 µM): 32%; target mRNA inhibition (MM.1R, 0.666 µM): 51%; target mRNA inhibition (MM.1R, 2 µM): 77%

Row | Sequence | target mRNA inhibition (MM.1R, 1 µM) | target mRNA inhibition (SK-MEL-28, 4 µM) [%] | other results
76 | GCATTTTATCATCCGA (sugars kdddddddddkekeke, PS) | 23% |  | 
77 | GCATTTTCCAGAAAAT (sugars k4 d8 k4, PS) |  | 37 | 
78 | GCCAAAGAGCCCAATT (sugars k3 d10 k3, PS) |  | 33 | 
79 | GCCAAAGTGACTTAAT (sugars k3 d10 k3, PS) |  | 70 | 
80 | GCCAAGTTGAAGACAC (sugars k3 d10 k3, PS) |  | 57 | 
81 | GCCACATTAGCAATTA (sugars k3 d10 k3, PS) |  | 8 | 
82 | GCCCAAAGGCTCCCGA (sugars k3 d10 k3, PS) |  | 11 | 
83 | GCCCAAGCCTTGAAGA (sugars k3 d10 k3, PS) |  | 15 | 
84 | GCCCAATACATATCCA (sugars k3 d10 k3, PS) |  | 58 | 
85 | GCCCAGCAAGAGGCAC (sugars k3 d10 k3, PS) |  | 7 | 
86 | GCCCAGCTAGCGCGCA (sugars k3 d10 k3, PS) |  | 29 | 
87 | GCCCGCAAAAGAAACG (sugars k3 d10 k3, PS) | 2% |  | 
88 | GCCGAAGCATTTTATC (sugars k3 d10 k3, PS) |  | 29 | 
89 | GCCGAGATATAAATAG (sugars k3 d10 k3, PS) |  | 40 | 
90 | GCCGCCCTCCAGGTTC (sugars k3 d10 k3, PS) |  | 49 | 
91 | GCCGGCCTGGCCCTTC (sugars k3 d10 k3, PS) |  | -14 | 
92 | GCCTAGGACTAAGGAC (sugars k3 d10 k3, PS) |  | 33 | 
93 | GCCTTGGACGGCCCCG (sugars k3 d10 k3, PS) |  | 23 | 
94 | GCGCAAAACCCCTCAA (sugars k3 d10 k3, PS) |  | 22 | 
95 | GCGCATAGGTCCTTCA (sugars k3 d10 k3, PS) |  | 63 | 
96 | GCGCATTTCAGTAAAT (sugars k3 d10 k3, PS) |  | 33 | 
97 | GCGCGGACGCACGGAG (sugars k3 d10 k3, PS) |  | 2 | 
98 | GCGCTCTCTCTGTAAC (sugars k3 d10 k3, PS) | -7% |  | 
99 | GCGGAGCATCAACAAA (sugars k3 d10 k3, PS) |  | 30 | 
